In brackets after ≈: the same amount, converted by molar mass.
How the values were obtained:
[1] = system: c-Myc protein; experiment: c-Myc protein expression by immunoblotting, PC-3; format: cell-based, human; settings: PC-3 cells, 0.1 mg/mL
Method: Human prostate cancer cell line PC-3 and human promyelocytic leukemia cell line HL-60 were cultured in Gibco BRL company RPMI (Roswell Park Memorial Institute) 1640's medium.
(§1) Cells or xenograft tumors were harvested with RIPA lysis buffer (50 mM Tris (pH 7.5), 150 mM NaCl, 1% Triton X-100, 0.1% sodium dodecyl sulfate (SDS), 0.5% sodium deoxycholate, supplemented with protease and phosphatase inhibitors (1 mM Phenylmethanesulfonyl Fluoride (PMSF), […], […] Tosyllysine Chloromethyl Ketone (TLCK), […] Tosyl phenylalanyl chloromethyl ketone (TPCK), […] aprotinin, 1 mM sodium fluoride (NaF), 5 mM sodium pyrophosphate (NaPPi) and 10 mM sodium orthovanadate (Na3VO4).
(§2) Protein lysates were quantified and separated on SDS-PAGE gel, and immunoblotting was carried out.

[2] = system: c-Myc; experiment: c-Myc expression in xenograft tumors; format: in vivo, mice; settings: FIG. 34 c-Myc/actin (PGG); FIG. 35 mRNA (F3-6 25 and 300 mpk)
Method: Please refer to FIGS. 34-35. FIG. 34 illustrates c-Myc/actin expression ratio in the tumor after treatments, wherein the numeral 1 is for the solvent, and the numeral 2 is for PGG. FIG. 35 illustrates c-Myc in RNA expression in the tumor after treatments, wherein the numeral 1 is for the solvent, the numeral 2 is for F3-6 (25 mpk), and the numeral 3 is for F3-6 (300 mpk).
RNA was prepared by using Tri Reagent (Sigma-Aldrich, St Louis, Mo., USA) and was reverse transcribed into cDNA using a Super Script II Reverse Transcriptase Kit (Invitrogen Inc., Carlsbad, Calif., USA).
PCR was performed on an ABI StepOne Plus System (Applied Biosystems, Foster City, Calif., USA) using the LightCycler® First Start DNA Master SYBR Green I reagent (Roche Diagnostics, Basel, Switzerland). The mRNA level was normalized using the TATA-box binding protein (TBP) mRNA level as the standard.
The following primers were used: GNMT forward, 5′-ACTGGATGACT CTGGACAA-3′ (SEQ ID NO. 3) and reverse, 5′-ACTGAGGATGTGGTCGT-3′(SEQ ID NO. 4); TBP forward, 5′-[…]-3′ (SEQ ID NO. 5) and reverse, 5′-[…]-3′(SEQ ID NO. 6); c-Myc forward, […](SEQ ID NO. 7) and reverse, […](SEQ ID NO. 8). […]

[3] = system: Huh7 cells; experiment: Colony formation assay; format: cell-based, human; settings: 7 days
Method: For the colony assay, Huh7 cells were seeded. […] Numbers of surviving colonies were analyzed.

[4] = system: Huh7 cells; experiment: Apoptosis in Huh7 cells (Annexin V flow cytometry, cleaved caspase 3 immunoblot); format: cell-based, human
Method: Please refer to FIG. 22, which illustrates sub-G1 of cells in population. And flow cytometry analysis is done after 24 hours of PGG (0.1 mg/mL) treatment as illustrated in FIG. 22.
Please refer to FIG. 23, which illustrates fluorescence intensity in Annexin-V-positive cells among Huh7 cells.
In summary, administration of PGG to Huh7 cells can induce apoptosis.
Cells were harvested and fixed with cold 75% ethanol overnight and stained with propidium iodide (10 ug/mL) and RNase A (1 mg/mL) at 37 □ for 30 min. The cells were then analyzed by an Accuri C6 Flow cytometer (BD Biosciences, San Jose, Calif., USA). Cells were stained for Annexin V—APC Apoptosis Detection Kit according to the manufacturer's protocol (eBioscience, San Diego, Calif., USA).

[5] = system: Mahlavu cells; experiment: alamarBlue cell viability, Mahlavu; format: cell-based, human
From the text: (§3) Next, we analyzed the effect of PGG on cell proliferation in different liver cancer cell lines, including Huh7, Hep3B (ATCC-No 8064), HepG2 (ATCC HB-8065), SK-HEP-1 (ATCC HTB-52), Mahlavu and HepG2 (ATCC HB-8065).
(§4) Please refer to FIG. 18, which illustrates the effect of PGG on cell proliferation in different liver cancer cell lines, wherein the numeral 1 denotes Huh7 cells, the numeral 2 denotes Hep3B cells, the numeral 3 denotes SK-HEP-1 cells, the numeral 4 denotes Mahlavu cells, and the numeral 5 denotes HepG2 cells. And cell viability was determined by the alamarBlue® viability assay. IC50 values of PGG in each cell line are shown as follows: Huh7 cells 0.03 mg/mL, Hep3B cells 0.07 mg/mL, SK-HEP-1 cells, Mahlavu cells and HepG2 0.10 mg/mL dose-dependent.
(§5) Human liver cancer cell lines Huh7, Hep G2, Hep 3B, SK-HEP-1, Mahlavu and embryonic kidney cell line HEK-293T all were cultured in Dulbecco's Modified Eagle's Medium (DMEM) (Gibco BRL, Grand Island, N.Y., USA) with 10% heat-inactivated fetal bovine serum (HyClone, Logan, Utah, USA), penicillin (100 U/mL), streptomycin ([…]), nonessential amino acids (0.1 mM/L) and L-glutamine (2 mM/L) in a humidified incubator with 5% CO2.

[6] = system: GNMT promoter; experiment: Dual luciferase GNMT promoter reporter assay in c-Myc knocked-out Huh7 cells; format: cell-based, human; settings: 0.1 mg/mL
Method: Huh7 cells were co-transfected with a GNMT promoter reporter plasmid, a thymidine kinase (TK) renilla luciferase plasmid, a shMyc plsmid or a shLacZ plasmid for 72 hours.
Evaluating whether the activity of GNMT promoter is damaged or not by knocking out the c-Myc gene and then administering with PGG, in order to confirm that the inhibition of the expression of c-Myc resulting in induced GNMT promoter due to PGG.
Please refer to FIG. 39, which illustrates overexpressions of PGG and c-Myc have influences on GNMT reporter, wherein the numeral 1 denotes the solvent, the numeral 2 denotes PGG, the numeral 3 denotes shLacZ, and the numeral 4 denotes shMyc.

[7] = system: Huh7 cells; experiment: Antitumor effect of PGG, Huh7 xenograft; format: in vivo, nude mice; settings: 300 mpk, once a day for 10 days
Method: To test the antitumor effect of PGG in vivo, Huh7 cells were implanted subcutaneously into nude mice.
By the same token, mice were subcutaneously injected with Huh7 cells (2×10^6) in order to test the anti-tumor effect of PGG in vivo.
Tumor growth was monitored (every day or three times per week) by using Vernier caliper measurement of the length (L) and width (W) of the tumor.
Tumor volume (TV) was calculated by using the formula volume=(L×W^2)/2.

[8] = system: SK-HEP-1 cells; experiment: alamarBlue cell viability, SK-HEP-1; format: cell-based, human
From the text: as §3, §4, §5

[9] = system: c-Myc protein; experiment: c-Myc protein expression by immunoblotting, HepG2; format: cell-based, human; settings: HepG2 cells
Method: Please refer to FIG. 32A, FIG. 32B, FIG. 33A and FIG. 33B.
as §1, §2

Q: Which c-Myc protein expression [1] does the source give for `O=C(OC[C@H]1O[C@@H](OC(=O)c2cc(O)c(O)c(O)c2)[C@H](OC(=O)c2cc(O)c(O)c(O)c2)[C@@H](OC(=O)c2cc(O)c(O)c(O)c2)[C@@H]1OC(=O)c1cc(O)c(O)c(O)c1)c1cc(O)c(O)c(O)c1` [PGG, 1,2,3,4,6-penta-O-galloyl-β-D-glucopyranoside] here?
A: Its c-Myc protein expression is “inhibits c-Myc protein expression”.

Q: What about the “expression of c-Myc in the tumor xenograft mice” value [2] of the same molecule?
A: Its value is “lowers the expression of c-Myc”.

Q: What about the “inhibition of colony formation” value ([3]; 0.05 mg/ml or higher) of the same molecule?
A: Its value is 95%.

Q: What about the “formation of Huh7 cell populations (colonies), dose dependence” value [3] of the same molecule?
A: Its value is “dose-dependent manner”.

Q: And the “apoptosis (Annexin V staining)” value [4]?
A: Its value is “significantly induce apoptosis”.

Q: What about the “level of cleaved caspase 3 (immunoblot)” value [4] of the same molecule?
A: The value was “increased the level of cleaved caspase 3 in a dose-dependent manner”.

Q: And the IC50 [5]?
A: Its IC50 is 100 µg/mL (≈ 106 µM).

Q: And the “GNMT promoter induction in cells knocked out c-Myc (shMyc vs shLacZ)” value [6]?
A: The value was “drop”.

Q: And the “tumor growth (tumor volume) vs control group” value [7]?
A: Its value is “significant inhibition in tumor growth”.

Q: What about the IC50 [8] of the same molecule?
A: The IC50 was 100 µg/mL (≈ 106 µM).

Q: And the “expression of c-Myc protein, dose dependence” value [9]?
A: The value was “suppresses the expression of c-Myc protein in HepG2 cells in a dose-dependent manner”.

Q: What about the “expression of c-Myc protein, time dependence” value [9] of the same molecule?
A: Its value is “suppresses the expression of c-Myc protein in HepG2 cells in a time-dependent manner”.

— patent US11000535B2, “Anticancer composition and use thereof” (KAOHSIUNG MEDICAL UNIVERSITY, priority 2015, dated 2021)
